Active and inactive are the calls of the source. No cut-off for these calls is given here.
Columns and labels:
[1] = test system: SF-295; assay: Growth inhibition of human SF-295 cells assessed as reduction in cell viability measured after 48 hrs by SRB assay; type: functional
[2] = test system: Malme-3M; assay: Growth inhibition of human Malme-3M cells assessed as reduction in cell viability measured after 48 hrs by SRB assay; type: functional
[3] = test system: UO-31; assay: Growth inhibition of human UO-31 cells assessed as reduction in cell viability measured after 48 hrs by SRB assay; type: functional
[4] = test system: MOLT-4; assay: Growth inhibition of human MOLT-4 cells assessed as reduction in cell viability measured after 48 hrs by SRB assay; type: functional
[5] = test system: T47D; assay: Growth inhibition of human T47D cells assessed as reduction in cell viability measured after 48 hrs by SRB assay; type: functional
[6] = test system: A549; assay: Growth inhibition of human A549 cells assessed as reduction in cell viability measured after 48 hrs by SRB assay; type: functional
[7] = test system: LOX IMVI; assay: Growth inhibition of human LOX IMVI cells assessed as reduction in cell viability measured after 48 hrs by SRB assay; type: functional
[8] = test system: HOP-92; assay: Growth inhibition of human HOP-92 cells assessed as reduction in cell viability measured after 48 hrs by SRB assay; type: functional
[9] = test system: MDA-MB-468; assay: Growth inhibition of human MDA-MB-468 cells assessed as reduction in cell viability measured after 48 hrs by SRB assay; type: functional
[10] = test system: NCI/ADR-RES; assay: Growth inhibition of human NCI/ADR-RES cells assessed as reduction in cell viability measured after 48 hrs by SRB assay; type: functional
[11] = test system: DU-145; assay: Growth inhibition of human DU-145 cells assessed as reduction in cell viability measured after 48 hrs by SRB assay; type: functional
[12] = test system: K562; assay: Growth inhibition of human K562 cells assessed as reduction in cell viability measured after 48 hrs by SRB assay; type: functional
[13] = test system: OVCAR-5; assay: Growth inhibition of human OVCAR-5 cells assessed as reduction in cell viability measured after 48 hrs by SRB assay; type: functional
[14] = test system: SK-MEL-2; assay: Growth inhibition of human SK-MEL-2 cells assessed as reduction in cell viability measured after 48 hrs by SRB assay; type: functional
[15] = test system: NCI-H460; assay: Growth inhibition of human NCI-H460 cells assessed as reduction in cell viability measured after 48 hrs by SRB assay; type: functional
[16] = test system: SW-620; assay: Growth inhibition of human SW620 cells assessed as reduction in cell viability measured after 48 hrs by SRB assay; type: functional
[17] = test system: MDA-MB-435; assay: Growth inhibition of human MDA-MB-435 cells assessed as reduction in cell viability measured after 48 hrs by SRB assay; type: functional
[18] = test system: K562; assay: Induction of cell cycle arrest in human K562 cells assessed as accumulation of cells at SubG1 phase at 2.56 uM measured after 24 hrs by PI staining based flow cytometry analysis (reference value: 2.21%); type: functional
[19] = test system: K562; assay: Induction of cell cycle arrest in human K562 cells assessed as accumulation of cells at SubG1 phase at 1.28 uM measured after 24 hrs by PI staining based flow cytometry analysis (reference value: 2.21%); type: functional
[20] = test system: K562; assay: Induction of cell cycle arrest in human K562 cells assessed as accumulation of cells at G2/M phase at 0.64 uM measured after 24 hrs by PI staining based flow cytometry analysis (reference value: 25.62%); type: functional
[21] = test system: K562; assay: Induction of cell cycle arrest in human K562 cells assessed as accumulation of cells at SubG1 phase at 0.64 uM measured after 24 hrs by PI staining based flow cytometry analysis (reference value: 2.21%); type: functional
[22] = test system: K562; assay: Induction of autophagy in human K562 cells assessed as increase in beclin-1 level at 2.56 uM measured after 24 hrs by Western blotting analysis; type: functional, cell-based
[23] = test system: K562; assay: Induction of apoptosis in human K562 cells assessed as late apoptotic cells at 0.64 uM incubated for 24 hrs by annexinV and propidium iodide staining based flow cytometry analysis (reference value: 0.82%); type: functional
[24] = test system: K562; assay: Induction of apoptosis in human K562 cells assessed as early apoptotic cells at 2.56 uM incubated for 24 hrs by annexinV and propidium iodide staining based flow cytometry analysis (reference value: 1.17%); type: functional
[25] = test system: K562; assay: Induction of cell cycle arrest in human K562 cells assessed as accumulation of cells at SubG1 phase at 1.28 uM measured after 24 hrs by PI staining based flow cytometry analysis (reference value: 2.48%); type: functional
[26] = test system: K562; assay: Induction of cell cycle arrest in human K562 cells assessed as accumulation of cells at G0/G1 phase at 0.64 uM measured after 24 hrs by PI staining based flow cytometry analysis (reference value: 46.71%); type: functional
[27] = test system: K562; assay: Induction of cell cycle arrest in human K562 cells assessed as accumulation of cells at G2/M phase at 1.28 uM measured after 24 hrs by PI staining based flow cytometry analysis (reference value: 29.092%); type: functional
[28] = test system: K562; assay: Induction of apoptosis in human K562 cells assessed as early apoptotic cells at 1.25 uM incubated for 24 hrs by annexinV and propidium iodide staining based flow cytometry analysis (reference value: 0.42%); type: functional
[29] = test system: K562; assay: Induction of autophagy in human K562 cells assessed as increase in beclin-1 level at 1.28 to 2.56 uM measured after 24 hrs by Western blotting analysis; type: functional, cell-based; settings: dose 1.28-2.56 µM
[30] = test system: K562; assay: Induction of apoptosis in human K562 cells assessed as late apoptotic cells at 5 uM incubated for 24 hrs by annexinV and propidium iodide staining based flow cytometry analysis (reference value: 1.342%); type: functional
[31] = test system: K562; assay: Induction of cell cycle arrest in human K562 cells assessed as accumulation of cells at S phase at 0.64 uM measured after 24 hrs by PI staining based flow cytometry analysis (reference value: 21.74%); type: functional
[32] = test system: K562; assay: Induction of cell cycle arrest in human K562 cells assessed as accumulation of cells at SubG1 phase at 5 uM measured after 24 hrs by PI staining based flow cytometry analysis (reference value: 3.43%); type: functional
[33] = test system: K562; assay: Induction of cell cycle arrest in human K562 cells assessed as accumulation of cells at G2/M phase at 2.5 uM measured after 24 hrs by PI staining based flow cytometry analysis (reference value: 29.44%); type: functional
[34] = test system: K562; assay: Induction of cell cycle arrest in human K562 cells assessed as accumulation of cells at SubG1 phase at 2.56 uM measured after 24 hrs by PI staining based flow cytometry analysis (reference value: 2.48%); type: functional
[35] = test system: K562; assay: Induction of apoptosis in human K562 cells assessed as late apoptotic cells at 0.64 uM incubated for 24 hrs by annexinV and propidium iodide staining based flow cytometry analysis (reference value: 1.34%); type: functional
[36] = test system: K562; assay: Induction of cell cycle arrest in human K562 cells assessed as accumulation of cells at G0/G1 phase at 2.56 uM measured after 24 hrs by PI staining based flow cytometry analysis (reference value: 46.71%); type: functional
[37] = test system: K562; assay: Induction of cell cycle arrest in human K562 cells assessed as accumulation of cells at G2/M phase at 2.56 uM measured after 24 hrs by PI staining based flow cytometry analysis (reference value: 29.09%); type: functional

| SMILES | GI50 [1] [nM] | GI50 [2] [nM] | GI50 [3] [nM] | GI50 [4] [nM] | GI50 [5] [nM] | GI50 [6] [nM] | GI50 [7] [nM] | GI50 [8] [nM] | GI50 [9] [nM] | GI50 [10] [nM] | GI50 [11] [nM] | GI50 [12] [nM] | GI50 [13] [nM] | GI50 [14] [nM] | GI50 [15] [nM] | GI50 [16] [nM] | GI50 [17] [nM] | other results |
| --- | --- | --- | --- | --- | --- | --- | --- | --- | --- | --- | --- | --- | --- | --- | --- | --- | --- | --- |
| CC(C)(C)n1cc(-c2ccnc(NCCCNS(=O)(=O)c3cccc4ccccc34)c2)c(-c2cccc(O)c2)n1 | 1800 | 1510 | 2260 | 2000 | 2220 | 2290 | 1730 | 1710 | 2040 | 1850 | 2650 | 1480 | 1980 | 1880 | 1930 | 1810 | 1760 | – |
| CC(C)(C)n1cc(-c2ccnc(NCCCNS(=O)(=O)c3ccc(C(F)(F)F)cc3)c2)c(-c2cccc(O)c2)n1 | 1690 | 1720 | 1580 | 2330 | 2240 | 2020 | 1720 | 1600 | 1880 | 2070 | 1940 | 2100 | 1810 | 2100 | 1860 | 1890 | 1810 | – |
| CC(C)(C)n1cc(-c2ccnc(NCCCNS(=O)(=O)c3ccc(Cl)cc3)c2)c(-c2cccc(O)c2)n1 | 1790 | 1660 | 1890 | 1910 | 1820 | 1970 | 1730 | 1490 | 1800 | 1920 | 2750 | 1280 | 1570 | 1920 | 1940 | 1770 | 1790 | Activity [18]: 0.07%; Activity [19]: 0.23%; Activity [20]: 51.01%; Activity [21]: 2.16%; Activity [22]: inactive; Activity [23]: 0.48%; Activity [24]: 2.14% |
| O=C1c2ccccc2-c2n[nH]c3cccc1c23 | 22500 | 16400 | 10500 | 20400 | > 100000 | 14900 | – | 37600 | – | 22600 | 28200 | 48600 | 24400 | 29000 | 9860 | 10900 | 12800 | Activity [25]: 7.26%; Activity [26]: 27.69%; Activity [27]: 47.55%; Activity [28]: 0.72%; Activity [29]: Active; Activity [30]: 4.12%; Activity [31]: 18.56%; Activity [32]: 4.01%; Activity [33]: 45.34%; Activity [34]: 2.85%; Activity [35]: 1.14%; Activity [36]: 37.63%; Activity [37]: 37.88% |
| CC(C)(C)n1cc(-c2ccnc(NCCCNS(=O)(=O)c3ccc(Br)cc3)c2)c(-c2cccc(O)c2)n1 | 1710 | 1670 | 1660 | 2300 | 2480 | 2110 | 1770 | 1560 | 2100 | 2210 | 2100 | 2020 | 1870 | 2130 | 1990 | 1830 | 1820 | – |

Reference: ChEMBL document CHEMBL5634117 (Eur J Med Chem, 2023)
